For assay [1], the target named is Mitogen-activated protein kinase 14 (Homo sapiens) (UniProt Q16539). In words: Inhibition of N-terminal GST-fused truncated human p38alpha (9 to 352 residues) expressed in Escherichia coli expression system using Modified Erktide as substrate at 1 uM in presence of ATP by Mobility shift assay.
In assay [2] the target is Serine/threonine-protein kinase 3 (Homo sapiens) (UniProt Q13188). Kind of assay: Inhibition of N-terminal GST-fused full length human MST2 (1 to 491 residues) expressed in baculovirus expression system using IRS1 as substrate at 1 uM in presence of ATP by Mobility shift assay.
For assay [3], the target named is Phosphorylase b kinase gamma catalytic chain, liver/testis isoform (Homo sapiens) (UniProt P15735). Kind of assay: Inhibition of N-terminal GST-fused full length human PHKG2 (1 to 406 residues) expressed in baculovirus expression system using GS peptide as substrate at 1 uM in presence of ATP by Mobility shift assay.
The target in assay [4] is Tyrosine-protein kinase Blk (Homo sapiens) (UniProt P51451). In words: Inhibition of N-terminal GST-fused full length human BLK (1 to 505 residues) expressed in baculovirus-infected Sf21 cells using Srctide as substrate at 1 uM in presence of ATP by Mobility shift assay.
The target in assay [5] is Receptor-type tyrosine-protein kinase FLT3 (Homo sapiens) (UniProt P36888). Kind of assay: Inhibition of N-terminal GST-fused human FLT3 cytoplasmic domain (564 to 993 residues) expressed in baculovirus-infected Sf21 cells using Srctide as substrate at 1 uM in presence of ATP by Mobility shift assay.
For assay [6], the target named is Epidermal growth factor receptor (Homo sapiens) (UniProt P00533). In words: Inhibition of N-terminal GST-fused human EGFR cytoplasmic domain (669 to 1210 residues) expressed in baculovirus-infected Sf21 cells using Srctide as substrate at 1 uM in presence of ATP by Mobility shift assay.
Assay [7] has as its target Casein kinase II alpha/beta (Homo sapiens) (UniProt P67870+P68400). In words: Inhibition of N-terminal GST-fused full length human CK2alpha1 (1 to 391 residues)/His-tagged human CK2beta (1 to 215 residues) expressed in baculovirus expression system using CK2tide as substrate at 1 uM in presence of ATP by Mobility shift assay.
The target in assay [8] is Protein kinase C zeta type (Homo sapiens) (UniProt Q05513). In words: Inhibition of N-terminal GST-fused human full length PKC-zeta (1 to 592 residues ) expressed in baculovirus expression system using PKC peptide as substrate at 1 uM in presence of ATP by Mobility shift assay.
The target in assay [9] is Casein kinase II alpha'/ beta (Homo sapiens) (UniProt P67870+P19784). In words: Inhibition of N-terminal GST-fused full length human CK2alpha2 (1 to 350 residues)/His-tagged human CK2beta (1 to 215 residues ) expressed in baculovirus expression system using CK2tide as substrate at 1 uM in presence of ATP by Mobility shift assay.
In assay [10] the target is Epithelial discoidin domain-containing receptor 1 (Homo sapiens) (UniProt Q08345). Kind of assay: Inhibition of N-terminal GST-fused human DDR1 cytoplasmic domain (444 to 876 residues) expressed in baculovirus-infected Sf21 cells using IRS1 as substrate at 1 uM in presence of ATP by Mobility shift assay.
Assay [11] deals with CDK6/cyclin D3 (Homo sapiens) (UniProt P30281+Q00534). Kind of assay: Inhibition of N-terminal GST-tagged full length human CDK6 (1 to 326 residues)/GST-tagged human CyclinD3 (1 to 292 residues) expressed in baculovirus-infected Sf21 cells using DYRKtide-F as substrate at 1 uM in presence of ATP by Mobility shift assay.
A short description of assay [12]: Inhibition of N-terminal GST-fused full length human MGC42105 (1 to 436 residues) expressed in baculovirus expression system using CHKtide as substrate at 1 uM in presence of ATP by Mobility shift assay. The note with it: condition cancer.
The target of assay [13] is Vascular endothelial growth factor receptor 2 (Homo sapiens) (UniProt P35968). In words: Inhibition of N-terminal GST-tagged human KDR cytoplasmic domain (790 to 1356 residues) expressed in baculovirus-infected Sf21 cells using CSKtide as substrate at 1 uM in presence of ATP by Mobility shift assay.
Assay [14] concerns the target Homeodomain-interacting protein kinase 1 (Homo sapiens) (UniProt Q86Z02). Kind of assay: Inhibition of N-terminal GST-fused human HIPK1 catalytic domain (158 to 555 residues) expressed in baculovirus expression system using DYRKtide-F as substrate at 1 uM in presence of ATP by Mobility shift assay.
The target of assay [15] is Serine/threonine-protein kinase Nek2 (Homo sapiens) (UniProt P51955). In words: Inhibition of N-terminal His-tagged full length human NEK2 (1 to 445 residues) expressed in baculovirus expression system using CDK7 peptide as substrate at 1 uM in presence of ATP by Mobility shift assay.
Assay [16] concerns the target Macrophage colony-stimulating factor 1 receptor (Homo sapiens) (UniProt P07333). Kind of assay: Inhibition of N-terminal GST-fused human FMS cytoplasmic domain (538 to 972 residues) expressed in baculovirus-infected Sf21 cells using Srctide as substrate at 1 uM in presence of ATP by Mobility shift assay.
A short description of assay [17]: Inhibition of N-terminal GST-tagged human TRKB cytoplasmic domain (456 to 825 residues) expressed in baculovirus-infected Sf21 cells using Srctide as substrate at 1 uM in presence of ATP by Mobility shift assay. The conditions noted are these: condition cancer.
In assay [18] the target is Tyrosine-protein kinase Srms (Homo sapiens) (UniProt Q9H3Y6). In words: Inhibition of N-terminal GST-tagged human SRM catalytic domain (215 to 488 residues) expressed in baculovirus-infected Sf21 cells using Blk/Lyntide as substrate at 1 uM in presence of ATP by Mobility shift assay.
Assay [19] concerns the target Tyrosine-protein kinase Lyn (Homo sapiens) (UniProt P07948). In words: Inhibition of N-terminal GST-tagged full length human LynB(1 to 491 residues ) expressed in baculovirus-infected Sf21 cells using Srctide as substrate at 1 uM in presence of ATP by Mobility shift assay.
For assay [20], the target named is cAMP-dependent protein kinase catalytic subunit gamma (Homo sapiens) (UniProt P22612). In words: Inhibition of N-terminal GST-tagged full length human PKACgamma (1 to 351 residues) expressed in baculovirus expression system using Kemptide as substrate at 1 uM in presence of ATP by Mobility shift assay.
Assay [21] addresses Serine/threonine-protein kinase LATS2 (Homo sapiens) (UniProt Q9NRM7). In words: Inhibition of N-terminal GST-fused human LATS2 catalytic domain (553 to 1088 residues) expressed in baculovirus expression system using SGKtide as substrate at 1 uM in presence of ATP by Mobility shift assay.
The target of assay [22] is RAC-alpha serine/threonine-protein kinase (Homo sapiens) (UniProt P31749). In words: Inhibition of N-terminal GST-tagged human AKT1 catalytic domain (104 to 480 residues) co-expressed with His-tagged PDK1 (1 to 556 residues) in baculovirus-infected Sf21 cells using Crosstide as substrate at 1 uM in presence of ATP by Mobility shift assay.

Turning to `Cc1cc(C)c(CNC(=O)c2cc(Br)c3c(c2C)O[C@@](C)([C@H]2CC[C@H](N(C)C)CC2)O3)c(=O)[nH]1`, the inhibition (in general, the relative decrease from the control value, in per cent) in [1] is -7.2%; in assay [2], -2.1%; in assay [3], 0.7%; in assay [4] it was -3.1%; in [5] it was -2.6%; in [6], -2%. In addition, the inhibition in [7] is -5.8%; in [8], 3.2%; in assay [9], -5.5%; in assay [10] it was -3.3%; in [11], -8.9%; in assay [13], -1.1%. In addition, the inhibition in assay [14] was -4.7%; in assay [15] it was 1.5%; in [16], -0.4%; in [18], -0.1%; in assay [19] it was -3.2%; in assay [20], -1.4%. The inhibition in assay [21] is -0.6%; in assay [22], -2.9%. Besides, the inhibition at 1 µM is -1.7% in assay [12] and -7.7% in assay [17].
As to `Cc1cc(C)c(CNC(=O)c2cc(Cl)c3c(c2C)O[C@@](C)([C@H]2CC[C@H](N(C)C)CC2)O3)c(=O)[nH]1` [VALEMETOSTAT], the inhibition is -8% in assay [1]; -1.4% in [2]; -2% in assay [3]; -5% in assay [4]; -1.5% in assay [5]; -1.8% in [6]. For the same compound, the inhibition in [7] was -4%; in [8], 9.3%; in assay [9], -4.7%; in assay [10], -3.7%; in [11], -4.9%; in [13] it was -3%. For the same compound, the inhibition in assay [14] was 0.5%; in assay [15] it was 1.4%; in assay [16] it was 1.3%; in [18] it was 0.6%; in [19], -4.3%; in assay [20], -2.4%. Besides, the results for the inhibition in assay [21] and in [22] were 0.6% and -2.9%, respectively. Further, the inhibition at 1 µM in assay [12] was -0.3%; in assay [17], -8.7%.

The record behind these values is ChEMBL document CHEMBL5647694, “Novel orally bioavailable EZH1/2 dual inhibitors with greater antitumor efficacy than an EZH2 selective inhibitor” (Cancer Sci, 2017).
